Data as given in patent US5350574A, “Derivatives of cyclosporina A, antibodies directed thereto and uses thereof” (The Trustees of Columbia University in the City of New York, priority 1991, dated 1994).
Entries after “also recorded” stand apart in the source; their conditions may differ.

Legend:
[1] = test system: rabbit antibody R575 (anti-CsA); assay: Inhibition RIA for antibody specificity with CsA analogues; assay type: binding; conditions: for IC50: read-out: IC50 (Concentration for 50% inhibition), inhibition of [3H]dihydro CsA binding to R575, overnight at 4° C.; for affinity group for the antibodies (inhibition RIA): result in words
Procedure: Serum antibodies were detected by a modification of the published radioimmunoassay (5, 12 ). […] Binding by diluted preimmune serum was used as a control. Free and bound ligand were separated with charcoal supplied by Sandoz according to their procedure.
The cyclosporin derivatives were dissolved in 100% ethanol at a concentration of 5.0 mg/ml, stored at -20° C., and diluted to final concentrations of 0.27 nM to 2.7 μM in Sandoz buffer B for the inhibition experiments.

32-6.F12 = assay: Cell agglutination assay, 32-6.F12 T-cell hybridoma; assay type: cell-based
Procedure: (§1) T or B cells (4-8×10^4 cells) were added to 200 μl of medium (see above) containing 50 μl of either PBS (vehicle control), aminodextran, BBa-aminodextran, or CsA-BBa-aminodextran at a concentration of 5×10^-7 M, in the presence or absence of various inhibitors or solvent controls, gently agitated on a platform shaker for 15 minutes at 25° C., incubated without agitation for 2-3 hours at 25° C., placed in a refrigerator and examined for agglutination periodically. The end points can begin to be seen after about 2-3 hours.

EL-4 cells = assay: Cell agglutination assay, EL-4 cells; assay type: cell-based; conditions: inhibitor concentration not given
Procedure: as §1

DO-11.10 = assay: Cell agglutination assay, DO-11.10 T-cell hybridoma; assay type: cell-based
Procedure: as §1

| Structure (SMILES) | IC50 [1] [nM] | inhibition of [3H]CsA binding obtainable ([1]; maximal inhibition by competing derivative) | affinity group for the antibodies (inhibition RIA) [1] | inhibition of agglutination of 32-6.F12 cells by CsA-BBa-aminodextran (32-6.F12) | inhibition of agglutination of EL-4 cells by CsA-BBa-aminodextran (EL-4 cells) | inhibition of agglutination of DO-11.10 cells by CsA-BBa-aminodextran (DO-11.10) |
| --- | --- | --- | --- | --- | --- | --- |
| C/C=C/C[C@@H](C)[C@@H](O)[C@H]1C(=O)N[C@@H](CC)C(=O)N(C)CC(=O)N(C)[C@@H](CC(C)C)C(=O)N[C@@H](C(C)C)C(=O)N(C)[C@@H](CC(C)C)C(=O)N[C@@H](C)C(=O)N[C@H](C)C(=O)N(C)[C@@H](CC(C)C)C(=O)N(C)[C@@H](CC(C)C)C(=O)N(C)[C@@H]([C@@H](C)CC)C(=O)N1C [Derivative 032] | 7 | – | high affinity group; also recorded: bind best | – | – | – |
| C/C=C/C[C@@H](C)[C@@H](O)[C@H]1C(=O)N[C@@H](C(C)C)C(=O)N(C)CC(=O)N(C)[C@@H](CC(C)C)C(=O)N[C@@H](C(C)C)C(=O)N(C)[C@@H](CC(C)C)C(=O)N[C@@H](C)C(=O)N[C@H](C)C(=O)N(C)[C@@H](CC(C)C)C(=O)N(C)[C@@H](CC(C)C)C(=O)N(C)[C@@H](C(C)C)C(=O)N1C [CsD] | 4.3 | – | high affinity group; also recorded: bind best | – | – | – |
| C/C=C/C[C@@H](C)[C@@H](O)[C@H]1C(=O)N[C@@H](CC)C(=O)N(C)CC(=O)N(C)[C@@H](CC(C)C)C(=O)N[C@@H](C(C)C)C(=O)N(C)[C@H](C)C(=O)N[C@@H](C)C(=O)N[C@H](C)C(=O)N(C)[C@@H](CC(C)C)C(=O)N(C)[C@@H](CC(C)C)C(=O)N(C)[C@@H](C(C)C)C(=O)N1C [Derivative 039] | 18 | – | Moderate affinities | – | – | – |
| C/C=C/C[C@@H](C)[C@@H](O)[C@H]1C(=O)N[C@@H]([C@@H](C)O)C(=O)N(C)CC(=O)N(C)[C@@H](CC(C)C)C(=O)N[C@@H](C(C)C)C(=O)N(C)[C@@H](CC(C)C)C(=O)N[C@@H](C)C(=O)N[C@H](C)C(=O)N(C)[C@@H](CC(C)C)C(=O)N(C)[C@@H](CC(C)C)C(=O)N(C)[C@@H](C(C)C)C(=O)N1C [CsC] | 11.5 | – | Moderate affinities | – | – | – |
| C/C=C/C[C@@H](C)[C@@H](OC(C)=O)[C@H]1C(=O)N[C@@H](CC)C(=O)N(C)CC(=O)N(C)[C@@H](CC(C)C)C(=O)N[C@@H](C(C)C)C(=O)N(C)[C@@H](CC(C)C)C(=O)N[C@@H](C)C(=O)N[C@H](C)C(=O)N(C)[C@@H](CC(C)C)C(=O)N(C)[C@@H](CC(C)C)C(=O)N(C)[C@@H](C(C)C)C(=O)N1C [Derivative 243] | 6 | – | high affinity group; also recorded: bind best | – | – | – |
| O=C(O)c1ccc(C(=O)c2ccccc2)cc1 [BBa, 4-Benzyoylbenzoic acid] | – | – | – | not | no inhibition | not |

More lines, main results first:

| IC50 [1] [nM] | inhibition of [3H]CsA binding obtainable ([1]; maximal inhibition by competing derivative) | Structure (SMILES) | affinity group for the antibodies (inhibition RIA) [1] | inhibition of agglutination of 32-6.F12 cells by CsA-BBa-aminodextran (32-6.F12) | inhibition of agglutination of EL-4 cells by CsA-BBa-aminodextran (EL-4 cells) | inhibition of agglutination of DO-11.10 cells by CsA-BBa-aminodextran (DO-11.10) |
| --- | --- | --- | --- | --- | --- | --- |
| 4.8 | – | C/C=C/C[C@@H](C)[C@@H](O)[C@H]1C(=O)N[C@@H]([C@@H](C)OC(C)=O)C(=O)N(C)CC(=O)N(C)[C@@H](CC(C)C)C(=O)N[C@@H](C(C)C)C(=O)N(C)[C@@H](CC(C)C)C(=O)N[C@@H](C)C(=O)N[C@H](C)C(=O)N(C)[C@@H](CC(C)C)C(=O)N(C)[C@@H](CC(C)C)C(=O)N(C)[C@@H](C(C)C)C(=O)N1C [Derivative 665] | high affinity group; also recorded: bind best | – | – | – |
| 2700 | more than 50% | C/C=C/C[C@@H](C)[C@@H](O)[C@H]1C(=O)N[C@@H](CC)C(=O)N(C)CC(=O)N(C)[C@@H](CC(C)C)C(=O)N[C@@H](C(C)C)C(=O)N(C)[C@@H](CC(C)C)C(=O)N[C@@H](C)C(=O)N[C@H](COC(C)(C)C)C(=O)N(C)[C@@H](CC(C)C)C(=O)N(C)[C@@H](CC(C)C)C(=O)N(C)[C@@H](C(C)C)C(=O)N1C [Derivative 717] | inhibits very poorly; also recorded: low affinity | – | – | – |
| 12 | – | C/C=C/C[C@@H](C)[C@@H](O)[C@H]1C(=O)N[C@@H](CC)C(=O)N2CCC[C@H]2C(=O)N(C)[C@@H](CC(C)C)C(=O)N[C@@H](C(C)C)C(=O)N(C)[C@@H](CC(C)C)C(=O)N[C@@H](C)C(=O)N[C@H](C)C(=O)N(C)[C@@H](CC(C)C)C(=O)N(C)[C@@H](CC(C)C)C(=O)N(C)[C@@H](C(C)C)C(=O)N1C [Derivative 582] | Moderate affinities | – | – | – |
